Literature values as cited in patent publication US9943503B1, “Pharmaceutical composition for treating bacterial and viral infections” (priority 2017, dated 2018).

Tested on: common cold
Conditions: adults; review of evidence

| Structure (SMILES) | prevention of the common cold, evidence |
| --- | --- |
| C=CCS[S+]([O-])CC=C (centres unmarked) [Allicin] | highly effective |
| O=C1O[C@H]([C@@H](O)CO)C(O)=C1O [vitamin C, ascorbic acid] | demonstrated benefit |
